Here are results for four compounds from patent publication US9980931B2, “Use of glycyl glutamine against depression” (priority 2013, dated 2018).

Where two headings read alike, the source gives them in different places. Peptide text beside a SMILES is read from it.

The test system of data set [1] is thermogenesis caused by alpha-MSH. Particulars: Resch and Millington, 1993; cited from earlier work.
The test system of another data set is use of alcohol. The conditions noted are these: administered centrally (Resch et al., 2005; Simpson et al., 1998); cited from earlier work.
Data set [2] relates to conditioned place preference (nicotine). Particulars: Goktalay et al., 2006; cited from earlier work.
The conditions of data set [3]: administered peripherally; cited from earlier work.
A further data set deals with myocardial damage. The conditions noted are these: Zhang et al., 2013; cited from earlier work.
Data set [4] concerns GABA levels in the brain. In words: GABA levels in the brain after administration. Format: in vivo. The conditions noted are these: Gly-Gln administration; data from our laboratory. From the text: This innovation is related with the use of glycyl-glutamine in the treatment and/or prophylaxis of depression disorder and/or anxiety, which meets all above-mentioned requirements, eliminates all disadvantages and provides some advantages. The purpose of the current invention is to use Glycyl-Glutamine (Gly-Gln) in the treatment and/or prophylaxis of depression and/or anxiety via its effects in the brain other than its metabolic products' (glycine and glutamine) separate effects. […] Glutamine exerts antidepressant effects by increasing gamma-aminobutyric acid (GABA) in the brain however Gly-Gln generates antidepressant effects by increasing serotonin levels in the brain. […] Although glutamine administration increases GABA levels in the brain.

For data set [5], the system named is conditioned place preference caused by morphine. The conditions noted are these: Cavun et al., 2005; cited from earlier work.
Another data set deals with brainstem of rodents. The conditions noted are these: applied on the brainstem of rodents iontophoretically (Parish et al., 1983); cited from earlier work.
In data set [6] the test system is serotonin output at the nucleus accumbency section of the brain. In words: Brain micro-dialysis, serotonin output after intracerebroventricular injection. In kind it is in vivo, rats. The conditions noted are these: 100 nmol single intracerebroventricular dose; 2 hours monitoring; p<0.001; FIGS. 4 and 5. The method, then: The source of the antidepressant effects of Gly-Gln, which is mentioned in the figure descriptions above, have been analyzed and shown in FIGS. 4 and 5. In FIGS. 4 and 5; the effect of Gly-Gin on the serotonin output at the nucleus accumbency section of the brain upon intracerebroventricular Gly-Gln injection can be seen. […] An increase in serotonin outputs can be observed in all time intervals throughout 2 hours of monitoring period following the Gly-Gln injection; however, no serotonin output could be observed from the rodents in the control group who had been administered saline injections by the same way. Serotonin, which is structurally a monoamine neurotransmitter, is a hormone, which makes people feel happy, energetic and lively. When, the subject matter hormone serotonin is deficient in people, they feel depressive, tired and boring. […] Furthermore, the word “Saline” indicated in FIGS. 4 and 5 means salty water. It is used for comparing with the tested medication by administering on the control group.

Data set [7] has as its system cardiorespiratory depression. The conditions noted are these: Unal et al., 1997; cited from earlier work.
Data set [8] deals with GABA levels in the brain. The conditions noted are these: glutamine administration; cited from earlier work.

Regarding `NCC(=O)N[C@@H](CCC(N)=O)C(=O)O` [Gly-Gln, glycyl-glutamine] (H-Gly-Gln-OH), in [1], the “thermogenesis caused by alpha-MSH” value is listed as “antagonized”. Further, in the data set on use of alcohol, the use of alcohol result was “decreased”. Besides, in [2], the “conditioned place preference and deprivation syndrome (nicotine)” value is given as “prevented”. Moreover, in data set [3], the “crossing of the blood-brain barrier” value is “could not across”. Also, the “effects on myocardial damage after severe burn injury” value in the data set with myocardial damage was “beneficial effects”. In addition, the “GABA levels in the brain” value in the data set with GABA levels in the brain [4] is on record as “does not alter”. Also, in [5], the “addition and tolerance developments (morphine)” value is reported as “inhibited”; the “conditioned place preference caused by morphine” value is reported as “prevented”; the “deprivation symptoms (morphine)” value was “decreased”. Besides, in the data set on brainstem of rodents, the “effect on cell ignition” value is recorded as “inhibiting effect”. Besides, in data set [6], the “serotonin output at the nucleus accumbency section of the brain” value was “extremely increased”. For the same compound, in data set [7], the “cardiorespiratory depression caused by beta-endorphin” value was “eliminated”; the “cardiorespiratory depression caused by beta-endorphin and morphine” value was “eliminated”.

As to “beta-endorphin (YGGFMTSEKSQTPLVTLFKNAIIKNAYKKGE; Beta-endorphin; UniProt P01189 237-267, looked up) [endogenous peptide from which Gly-Gln is produced, reference compound]”, the use of alcohol result in the data set on use of alcohol was “increased”.

`NC(=O)CC[C@@H]1NC(=O)CNC1=O` [cyclo Gly-Gln]: the “crossing of the blood-brain barrier” value in [3] is “could be across”. Besides, the “cardiorespiratory depression caused by beta-endorphin and morphine” value in data set [7] was “eliminated”.

For `NC(=O)CC[C@H](N)C(=O)O` [glutamine], the “GABA levels in the brain” value with GABA levels in the brain [8] is listed as “increases”.
